Test results: patent US20100280061A1, “NOVEL ANALGESIC THAT BINDS FILAMIN A” (priority 2009, published 2010)

Tests used:
[1] = system: MOR-Gs/olf and MOR-Go coupling; assay: Relative Gs/Go switching in organotypic striatal slice cultures (MOR-G protein coupling); type: cell-based, rat; conditions: for Go (MOR in anti-Gαo immunoprecipitates), average / Gs/Go-Coupled Ratio, average / Gs/olf (MOR in anti-Gαs/olf immunoprecipitates), average: striatal slice culture
Protocol: The experiments described herein were carried out on organotypic striatal slices from male Sprague Dawley rats (200 to 250 g) purchased from Taconic (Germantown, N.Y.). Rats were housed two per cage and maintained on a regular 12-hour light/dark cycle in a climate-controlled room with food and water available ad libitum and sacrificed by rapid decapitation. All data are presented as mean±standard error of the mean. Treatment effects were evaluated by two-way ANOVA followed by Newman-Keul's test for multiple comparisons. Two-tailed Student's t test was used for post hoc pairwise comparisons. The threshold for significance was p<0.05.
Striatal slices ([…]) were prepared using a Mcllwain tissue chopper (Mickle Laboratory Engineering Co., Surrey, UK). Slices were carefully transferred to sterile, porous culture inserts (0.4 μm, Millicell-CM) using the rear end of a glass Pasteur pipette. Each culture insert unit contained 2 slices and was placed into one well of the 12-well culture tray. […] The pH value was adjusted to 7.2 with HEPES buffer.
Cultures were first incubated for 2 days to minimize the impact of injury from slice preparation. Incubator settings throughout the experiment were 36° C. with 5% CO2.
Slices were returned to culture medium with normal serum after each drug exposure. Tissues were harvested 16 hours after the last drug exposure by centrifugation.
For determination of MOR-G protein coupling, slices were homogenized to generate synaptic membranes. […] Following centrifugation, striatal membrane lysates were immunoprecipitated with immobilized anti-Gαs/olf or -Gαo conjugated with immobilized protein G-agarose beads. The level of MOR in anti-Gαs/olf or -Gαo immunoprecipitates was determined by Western blotting using specific anti-MOR antibodies.

mouse = assay: Mouse hot-water tail-flick test; type: in vivo; conditions: orally administered
Protocol: The mouse “tail flick” test was used to assay the relative antinociceptive activity of compositions containing a compound to be assayed.
This assay was substantially that disclosed by Xie et al., 2005 J. Neurosci 25:409-416.
The mouse hot-water tail-flick test was performed by placing the distal third of the tail in a water bath maintained at 52° C. The latency until tail withdrawal from the bath was determined and compared among the treatments. A 10 second cutoff was used to avoid tissue damage. Data are converted to percentage of antinociception by the following formula: (response latency−baseline latency)/(cutoff−baseline latency)×100 to generate dose-response curves. […] Relative potency was determined as a ratio of the A50 values.

[2] = biological target: Bn-VAKGL pentapeptide of filamin A (FLNA) (Homo sapiens, UniProt P21333); assay: FITC-NLX-based FLNA screening assay (FLNA peptide binding assay); conditions: 10 nM FITC-NLX; for Percent inhibition of FITC-NLX binding, 0.01 μM: 0.01 μM compound; for Percent inhibition of FITC-NLX binding, 0.1 μM: 0.1 μM compound; for Percent inhibition of FITC-NLX binding, 1 μM: 1 μM compound
Protocol: The final assay volume is 100 μl.
Compounds are tested in triplicate or quadruplicate.

mu opiate receptor (MOR) = biological target: T1, mu opiate receptor (MOR) (Rattus norvegicus, UniProt P33535); assay: [35S]GTPγS binding assay using striatal membranes (MOR agonist activity); type: biochemical; set-up: MOR agonist activity, [35S]GTPγS binding to Gαo, 0.1 μM / MOR agonist activity, [35S]GTPγS binding to Gαo, 1 μM / MOR agonist activity, [35S]GTPγS binding to Gαo, 1 μM + BFNA: reference not given here; conditions: for MOR agonist activity, [35S]GTPγS binding to Gαo, 0.1 μM: 0.1 μM compound; for MOR agonist activity, [35S]GTPγS binding to Gαo, 0.1 μM / MOR agonist activity, [35S]GTPγS binding to Gαo, 1 μM: striatal membranes; for MOR agonist activity, [35S]GTPγS binding to Gαo, 1 μM + BFNA: 1 μM compound + 1 μM β-funaltrexamine; for MOR agonist activity, [35S]GTPγS binding to Gαo, 1 μM: 1 μM compound
T1 construct: from tissue; host or cells: striatal tissue (membrane preparation)
Protocol: To assess the mu opiate receptor (MOR) agonist activity of positive compounds from the FLNA screening, compounds were tested in a [^35S]GTPγS binding assay using striatal membranes. Our previous study has shown that in striatal membranes, activation of MOR leads to an increase in [^35S]GTPγS binding to Gαo (Wang et al., 2005 Neuroscience 135:247-261).
Striatal tissue was homogenized in 10 volumes of ice cold 25 mM HEPES buffer, pH 7.4, which contained 1 mM EGTA, 100 mM sucrose, 50 μg/ml leupeptin, 0.04 mM PMSF, 2 μg/ml soybean trypsin inhibitor and 0.2% 2-mercaptoethanol. The homogenates were centrifuged at 800×g for 5 minutes and the supernatants were centrifuged at 49,000×g for 20 minutes. The resulting pellets were suspended in 10 volume of reaction buffer, which contained 25 mM HEPES, pH 7.5, 100 mM NaCl, 50 μg/ml leupeptin, 2 μg/ml soybean trypsin inhibitor, 0.04 mM PMSF and 0.02% […].
The resultant striatal membrane preparation (200 μg) was admixed and maintained (incubated) at 30° C. for 5 minutes in reaction buffer as above that additionally contained 1 mM MgCl2 and 0.5 nM [^35S]GTPγS (0.1 μCi/assay, PerkinElmer Life and Analytical Sciences) in a total volume of 250 μl and continued for 5 minutes in the absence or presence of 0.1-10 μM of an assayed compound of interest. The reaction was terminated by dilution with 750 μl of ice-cold reaction buffer that contained 20 mM MgCl2 and 1 mM EGTA and immediate centrifugation at 16,000×g for 5 minutes.
The resulting pellet was solubilized by sonicating for 10 seconds in 0.5 ml of immunoprecipitation buffer containing 0.5% digitonin, 0.2% sodium cholate and 0.5% NP-40. Normal rabbit serum (1 μl) was added to 1 ml of lysate and incubated at 25° C. for 30 minutes. Nonspecific immune complexes were removed by incubation with 25 μl of protein A/G-conjugated agarose beads at 25° C. for 30 minutes followed by centrifugation at 5,000×g at 4° C. for 5 minutes. The supernatant was divided and separately incubated at 25° C. for 30 minutes with antibodies raised against Gαo proteins (1:1,000 dilutions).
The immunocomplexes so formed were collected by incubation at 25° C. for 30 minutes with 40 μl of agarose-conjugated protein A/G beads and centrifugation at 5,000×g at 4° C. for 5 minutes. The pellet was washed and suspended in buffer containing 50 mM Tris-HCl, pH 8.0, and 1% NP-40. The radioactivity in the suspension was determined by liquid scintillation spectrometry. […] DAMGO (H-Tyr-D-Ala-Gly-N-MePhe-Gly-OH; 1 or 10 μM) was used as a positive control.

filamin A = filamin A (Homo sapiens, UniProt P21333); conditions: read-out: affinity of binding to filamin A; cited from earlier work
[3] = 32 mg/kg, at about 20-30 minutes

T1 sequence (P33535 whole entry): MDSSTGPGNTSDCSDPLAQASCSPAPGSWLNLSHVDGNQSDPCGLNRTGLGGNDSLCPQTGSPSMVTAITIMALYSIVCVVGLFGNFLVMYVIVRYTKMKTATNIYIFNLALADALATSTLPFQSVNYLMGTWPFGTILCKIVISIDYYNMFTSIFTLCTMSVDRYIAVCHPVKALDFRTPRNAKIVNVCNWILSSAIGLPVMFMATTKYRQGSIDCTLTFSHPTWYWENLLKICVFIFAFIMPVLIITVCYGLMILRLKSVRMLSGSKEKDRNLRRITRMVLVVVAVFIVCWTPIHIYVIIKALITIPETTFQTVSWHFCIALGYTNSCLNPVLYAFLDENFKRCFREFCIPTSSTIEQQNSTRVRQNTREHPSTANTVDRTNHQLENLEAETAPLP
filamin A, sequence (P21333 whole entry): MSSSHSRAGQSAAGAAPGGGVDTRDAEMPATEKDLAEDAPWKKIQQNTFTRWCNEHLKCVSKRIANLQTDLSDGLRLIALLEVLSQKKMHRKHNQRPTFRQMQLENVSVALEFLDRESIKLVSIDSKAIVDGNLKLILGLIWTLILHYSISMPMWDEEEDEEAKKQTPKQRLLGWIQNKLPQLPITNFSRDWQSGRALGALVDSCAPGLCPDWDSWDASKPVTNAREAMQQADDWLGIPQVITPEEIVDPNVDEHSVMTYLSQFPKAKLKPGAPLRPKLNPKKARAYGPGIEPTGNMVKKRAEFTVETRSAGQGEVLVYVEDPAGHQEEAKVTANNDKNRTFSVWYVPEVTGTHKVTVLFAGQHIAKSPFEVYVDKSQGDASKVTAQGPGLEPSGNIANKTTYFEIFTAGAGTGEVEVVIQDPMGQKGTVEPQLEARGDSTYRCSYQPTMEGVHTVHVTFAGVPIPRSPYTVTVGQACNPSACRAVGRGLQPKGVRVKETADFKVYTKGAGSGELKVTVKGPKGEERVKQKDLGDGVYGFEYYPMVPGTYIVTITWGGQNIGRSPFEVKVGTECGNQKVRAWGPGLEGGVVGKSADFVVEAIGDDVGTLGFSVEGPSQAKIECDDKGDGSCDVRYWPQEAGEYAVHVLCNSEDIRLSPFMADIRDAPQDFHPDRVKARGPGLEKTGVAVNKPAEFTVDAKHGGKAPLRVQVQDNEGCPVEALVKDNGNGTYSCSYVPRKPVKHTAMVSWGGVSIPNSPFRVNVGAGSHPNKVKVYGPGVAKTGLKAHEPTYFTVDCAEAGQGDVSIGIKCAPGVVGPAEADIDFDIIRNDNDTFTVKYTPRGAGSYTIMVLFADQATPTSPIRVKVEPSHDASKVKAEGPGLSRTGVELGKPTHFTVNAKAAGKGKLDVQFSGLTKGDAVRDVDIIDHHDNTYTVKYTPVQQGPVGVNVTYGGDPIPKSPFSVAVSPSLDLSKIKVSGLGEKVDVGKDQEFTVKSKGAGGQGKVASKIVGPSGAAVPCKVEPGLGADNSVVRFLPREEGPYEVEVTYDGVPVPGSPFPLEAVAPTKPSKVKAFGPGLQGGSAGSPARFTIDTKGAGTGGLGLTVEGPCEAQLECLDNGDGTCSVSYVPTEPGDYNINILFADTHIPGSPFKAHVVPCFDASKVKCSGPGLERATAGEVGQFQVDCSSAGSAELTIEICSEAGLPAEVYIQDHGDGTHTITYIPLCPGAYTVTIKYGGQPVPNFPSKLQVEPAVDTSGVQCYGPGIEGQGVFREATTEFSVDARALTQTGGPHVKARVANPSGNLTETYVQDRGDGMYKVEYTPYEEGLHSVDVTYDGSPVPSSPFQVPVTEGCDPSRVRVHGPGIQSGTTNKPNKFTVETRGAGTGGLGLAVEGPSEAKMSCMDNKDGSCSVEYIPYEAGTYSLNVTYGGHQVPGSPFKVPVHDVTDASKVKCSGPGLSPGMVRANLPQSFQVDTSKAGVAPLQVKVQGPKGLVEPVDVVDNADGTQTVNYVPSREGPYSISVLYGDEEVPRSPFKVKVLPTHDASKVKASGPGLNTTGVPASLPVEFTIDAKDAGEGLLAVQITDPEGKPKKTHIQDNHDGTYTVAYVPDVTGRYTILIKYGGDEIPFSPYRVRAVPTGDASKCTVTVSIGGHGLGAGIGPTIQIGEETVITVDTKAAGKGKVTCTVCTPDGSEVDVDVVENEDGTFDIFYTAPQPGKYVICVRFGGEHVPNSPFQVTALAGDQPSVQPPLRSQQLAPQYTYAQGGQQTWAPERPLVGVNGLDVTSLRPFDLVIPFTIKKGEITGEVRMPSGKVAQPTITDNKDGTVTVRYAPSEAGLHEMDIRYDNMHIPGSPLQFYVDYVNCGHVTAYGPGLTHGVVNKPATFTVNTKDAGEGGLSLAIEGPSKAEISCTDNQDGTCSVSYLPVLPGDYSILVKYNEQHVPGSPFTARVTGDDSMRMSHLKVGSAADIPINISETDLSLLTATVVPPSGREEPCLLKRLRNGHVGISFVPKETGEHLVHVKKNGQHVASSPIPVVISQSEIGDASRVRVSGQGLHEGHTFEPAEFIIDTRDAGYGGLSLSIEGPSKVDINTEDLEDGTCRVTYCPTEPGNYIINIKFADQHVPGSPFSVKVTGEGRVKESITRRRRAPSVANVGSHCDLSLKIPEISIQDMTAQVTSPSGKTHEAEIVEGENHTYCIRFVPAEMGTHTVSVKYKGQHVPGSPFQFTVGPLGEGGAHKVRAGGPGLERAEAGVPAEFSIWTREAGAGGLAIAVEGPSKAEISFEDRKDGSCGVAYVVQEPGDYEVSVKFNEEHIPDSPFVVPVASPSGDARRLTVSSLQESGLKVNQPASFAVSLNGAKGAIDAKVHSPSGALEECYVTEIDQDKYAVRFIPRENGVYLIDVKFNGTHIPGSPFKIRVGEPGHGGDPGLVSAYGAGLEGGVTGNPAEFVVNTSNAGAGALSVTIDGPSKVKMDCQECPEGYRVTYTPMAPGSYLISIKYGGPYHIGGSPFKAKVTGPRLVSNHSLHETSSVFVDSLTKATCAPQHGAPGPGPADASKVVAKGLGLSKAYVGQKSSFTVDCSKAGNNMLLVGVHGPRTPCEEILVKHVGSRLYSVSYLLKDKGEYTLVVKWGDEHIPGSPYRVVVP

## COCOc1ccc(CCC(=O)CC2c3c(cc4c(c3OC)OCO4)CC[N+]2(C)C)cc1.[I-] (centres unmarked) [B0040]
[1]; 10 μM
  Go (MOR in anti-Gαo immunoprecipitates), average: 1419.8
  Gs/Go-Coupled Ratio, average: 0.598
  Gs/olf (MOR in anti-Gαs/olf immunoprecipitates), average: 839.0
[1]; 100 μM
  Go (MOR in anti-Gαo immunoprecipitates), average: 1472.6
  Gs/Go-Coupled Ratio, average: 0.332
  Gs/olf (MOR in anti-Gαs/olf immunoprecipitates), average: 867.2
mouse; [3]
  mean maximum antinoniception amount: about 25%
[2]
  Percent inhibition of FITC-NLX binding, 0.01 μM: 40.0%
  Percent inhibition of FITC-NLX binding, 0.1 μM: 53.1%
  Percent inhibition of FITC-NLX binding, 1 μM: 57.1%
Mu opiate receptor (MOR)
  MOR agonist activity, [35S]GTPγS binding to Gαo, 0.1 μM: 146.0%
  MOR agonist activity, [35S]GTPγS binding to Gαo, 1 μM + BFNA: 55.3%
  MOR agonist activity, [35S]GTPγS binding to Gαo, 1 μM: 243.3%

## COc1ccccc1CC(=O)CC1c2c(cc3c(c2OC)OCO3)CC[N+]1(C)C (centres unmarked) [compound 5009]
mouse; [3]
  mean maximum antinoniception amount: about 30%
Mu opiate receptor (MOR)
  MOR agonist activity, [35S]GTPγS binding to Gαo, 0.1 μM: 128.5%
  MOR agonist activity, [35S]GTPγS binding to Gαo, 1 μM + BFNA: 87.5%
  MOR agonist activity, [35S]GTPγS binding to Gαo, 1 μM: 270.4%

## O=C1CC[C@@]2(O)[C@H]3Cc4ccc(O)c5c4[C@@]2(CCN3CC2CC2)[C@H]1O5 [NTX, naltrexone]
Filamin A
  Kd: ~4 pM

## CN1CC[C@]23c4c5ccc(O)c4O[C@H]2[C@@H](O)C=C[C@H]3[C@H]1C5 [morphine, reference compound]
mouse; 56 mg/kg, at about 20 minutes
  mean maximum antinoniception amount: about 43%
mouse; same dose (32 mg/kg), at thirty minutes
  antinoniceptive effect: about 30%

## COc1ccc2c3c1O[C@H]1C(=O)CC[C@@]4(O)[C@@H](C2)N(C)CC[C@]314 [Oxycodone, oxycodone, reference compound]
[1]; 7 days of twice daily 1-hour exposures, organotypic striatal slice cultures
  switch of mu opioid receptors from Go to Gs coupling: switch from Go to Gs coupling

## COc1cccc(OC)c1CC(=O)CC1c2c(cc3c(c2OC)OCO3)CC[N+]1(C)C.[I-] (centres unmarked) [B0036]
mouse; [3]
  mean maximum antinoniception amount: about 20%
[2]
  Percent inhibition of FITC-NLX binding, 0.01 μM: 46.6%
  Percent inhibition of FITC-NLX binding, 0.1 μM: 52.8%
  Percent inhibition of FITC-NLX binding, 1 μM: 62.1%
Mu opiate receptor (MOR)
  MOR agonist activity, [35S]GTPγS binding to Gαo, 0.1 μM: 61.4%
  MOR agonist activity, [35S]GTPγS binding to Gαo, 1 μM + BFNA: 65.1%
  MOR agonist activity, [35S]GTPγS binding to Gαo, 1 μM: 120.6%

## COCOc1ccc(C(=O)CC2c3c(cc4c(c3OC)OCO4)CC[N+]2(C)C)cc1C.[I-] (centres unmarked) [B0041]
[2]
  Percent inhibition of FITC-NLX binding, 0.01 μM: 44.0%
  Percent inhibition of FITC-NLX binding, 0.1 μM: 46.8%
  Percent inhibition of FITC-NLX binding, 1 μM: 52.8%
Mu opiate receptor (MOR)
  MOR agonist activity, [35S]GTPγS binding to Gαo, 0.1 μM: 61.6%
  MOR agonist activity, [35S]GTPγS binding to Gαo, 1 μM + BFNA: 41.9%
  MOR agonist activity, [35S]GTPγS binding to Gαo, 1 μM: 109.3%

## COc1c2c(cc3c1C(CC(=O)Cc1ccccc1Cl)[N+](C)(C)CC3)OCO2.[I-] (centres unmarked) [B0039]
[2]
  Percent inhibition of FITC-NLX binding, 0.01 μM: 43.3%
  Percent inhibition of FITC-NLX binding, 0.1 μM: 45.7%
  Percent inhibition of FITC-NLX binding, 1 μM: 50.9%
Mu opiate receptor (MOR)
  MOR agonist activity, [35S]GTPγS binding to Gαo, 0.1 μM: 171.8%
  MOR agonist activity, [35S]GTPγS binding to Gαo, 1 μM + BFNA: 78.3%
  MOR agonist activity, [35S]GTPγS binding to Gαo, 1 μM: 290.5%

## COc1ccc(C(=O)CC2c3c(cc4c(c3OC)OCO4)CC[N+]2(C)C)cc1OC.[I-] (centres unmarked) [B0026]
[2]
  Percent inhibition of FITC-NLX binding, 0.01 μM: 41.1%
  Percent inhibition of FITC-NLX binding, 0.1 μM: 43.3%
  Percent inhibition of FITC-NLX binding, 1 μM: 48.2%
Mu opiate receptor (MOR)
  MOR agonist activity, [35S]GTPγS binding to Gαo, 0.1 μM: 152.0%
  MOR agonist activity, [35S]GTPγS binding to Gαo, 1 μM + BFNA: 28.8%
  MOR agonist activity, [35S]GTPγS binding to Gαo, 1 μM: 233.3%

## C=CCN1CC[C@]23c4c5ccc(O)c4O[C@H]2C(=O)CC[C@@]3(O)[C@H]1C5 [NLX, naloxone]
Filamin A
  Kd: ~4 pM

## COc1c2c(cc3c1C(CC(=O)Cc1ccc(C#N)cc1)[N+](C)(C)CC3)OCO2 (centres unmarked) [B0012]
[2]
  Percent inhibition of FITC-NLX binding, 0.01 μM: 39.4%
  Percent inhibition of FITC-NLX binding, 0.1 μM: 46.9%
  Percent inhibition of FITC-NLX binding, 1 μM: 51.7%
Mu opiate receptor (MOR)
  MOR agonist activity, [35S]GTPγS binding to Gαo, 0.1 μM: 167.4%
  MOR agonist activity, [35S]GTPγS binding to Gαo, 1 μM + BFNA: 145.1%
  MOR agonist activity, [35S]GTPγS binding to Gαo, 1 μM: 212.0%

## COc1ccc(CCC(O)CC2c3c(cc4c(c3OC)OCO4)CCN2C)cc1 (centres unmarked) [B0048]
[2]
  Percent inhibition of FITC-NLX binding, 0.01 μM: 34.7%
  Percent inhibition of FITC-NLX binding, 0.1 μM: 41.9%
  Percent inhibition of FITC-NLX binding, 1 μM: 43.9%
Mu opiate receptor (MOR)
  MOR agonist activity, [35S]GTPγS binding to Gαo, 0.1 μM: 185.1%
  MOR agonist activity, [35S]GTPγS binding to Gαo, 1 μM + BFNA: 78.5%
  MOR agonist activity, [35S]GTPγS binding to Gαo, 1 μM: 223.4%
